Measured values: PMC11885506, “Evaluation of a non-animal toolbox informed by adverse outcome pathways for human inhalation safety” (Frontiers in Toxicology, 2025)
“Also recorded” adds a separate entry of the source. Where a name gives a salt, the structure may show the parent alone.

Legend:
[1] = test system: MucilAir™-HF tissues
Procedure: (§4) The MucilAir™-HF system (EP11MD) and ready-to-use chemically-defined, serum-free culture medium (EP04AM) were obtained from Epithelix Sàrl (Geneva, Switzerland). Tissues were handled as recommended by manufacturer’s instruction. […] After differentiation for 42 up to 81 days at the air-liquid interface (ALI) under standard culture conditions (37°C ± 1°C in a humidified atmosphere of 5% ± 1% CO2 in air), tissues were washed 3 days before first exposure and each insert was inspected for beating cilia and mucus production. This washing step (one or twice with PBS) were performed to remove accumulated mucus and cell debris to minimize the risk of interference with the toxicity tests. Over 12-day experimental period, washing steps as well as media changes was performed every 2-3 days.
For toxicity testing performed over a 12-day experimental period, tissues were daily exposed to 3 different concentrations of each test material for 30 min or 6 h (for detailed information on each material see Table 1). […] Tissues were exposed by test materials via nebulization, liquid apical application, or liquid basal application. These differences in the exposure type were due to solubility of the test material, route of exposure (inhaled or systemic), or comparison with previous publications. […]

[2] = test system: MucilAir™-HF model
Procedure: (§5) Concentration and time-dependent changes in the bioactivity readout data were analyzed using a nonlinear state space model, based on the work of [Svensson and Schön (2017)]. […] All bioactivity readouts were included in the analysis (where available), i.e., measurements for tissue integrity loss (TEER) and functionality (MCC, CBF, and mucin secretion), cytokine/chemokine secretion, and the transcriptional LV values obtained using PLIER. The datasets were grouped so that a single state space model was used to capture all the responses (across time, concentration, and test material) for a single readout obtained within a particular study (laboratory/tissue model). Data were transformed to the log base 10 scale and normalized using z-scores, so that for a given readout Ytij from a laboratory/tissue model, the corresponding normalized value was given by y^tij=⁡log⁡10(Ytij)−μ)/σ . Here, the indexes i,j,t correspond to the different test materials, concentrations and timepoints, μ and σ are the sample mean and standard deviation of the control readout values obtained for the first timepoint. All measurement were then scaled so that the maximum median value across different replicates was one for all timepoints, readouts and test materials within a given laboratory/tissue model.
The model consists of state variables xti,j , response variables ytij and the concentrations of material c^i,j . The response variables yti,j represent the normalized (see below) readout values at timepoint t for material exposure i,j . The mean of the response variable is given by xti,j , so that yti,j∼xti,j+et , where et represents random fluctuations in the readout values, due to observational noise, which are taken to be normally distributed. Dynamical changes in state values are given by xti,j=fxt−1i,j,cti,j+vt . […] For each state space model representing a particular laboratory/readout dataset, SMC simulation was run for three chains at 5,000 iterations each, and first 1,000 iterations were discarded from the final posterior samples. […]

[3] = cited from earlier work; for Risk: Scenario Plasma; for Risk classification: per benchmark chemical-exposure scenario (product and exposure scenario of the same line), based on historical safety decisions, ref References column of Table 3
[4] = test system: patients; set-up: method as in Budin et al., 2022; settings: ref Budin et al., 2022; cited from earlier work
[5] = test system: EpiAlveolar™ model; assay: Bioactivity exposure ratio (BER): lowest in vitro PoD of EpiAlveolar readouts / lower respiratory tract exposure estimate or Cmax; set-up: species or system human; settings: Plasma
Procedure: as §5
The model consists of state variables xti,j , response variables ytij and the concentrations of material c^i,j . The response variables yti,j represent the normalized (see below) readout values at timepoint t for material exposure i,j . The mean of the response variable is given by xti,j , so that yti,j∼xti,j+et , where et represents random fluctuations in the readout values, due to observational noise, which are taken to be normally distributed. Dynamical changes in state values are given by xti,j=fxt−1i,j,cti,j+vt . Here, fxt−1i,j,c^i,j is a non-linear function that represents interactions between different state variables and the perturbation caused by the test material at a given exposure at concentration c^i,j, and vt represents random fluctuations in state dynamics (which are also normally distributed). Following [Svensson and Schön (2017)], the nonlinear terms are based on an approximation to Gaussian processes, which are obtained using a basis function expansion-based approach. Inference of the model parameters was performed in the framework of Bayesian inference, wherein random draws of the posterior distribution were obtained using Sequential Monte Carlo (SMC), see [Svensson and Schön (2017)] and [Chopin and Papaspiliopoulos (2020)]. For each state space model representing a particular laboratory/readout dataset, SMC simulation was run for three chains at 5,000 iterations each, and first 1,000 iterations were discarded from the final posterior samples. The Rhat convergence diagnostic (Rhat < 1.1) was used to ensure the simulations had converged.
The state space model and posterior model parameter samples were then used to construct posterior predictive distributions of the response of each readout to a given test material for a given concentration and timepoint (see Figure 4). The posterior predictive distributions were used to estimate various statistics on the readout responses (median, 95% credible range etc.), PoDs, Concentration Dependency Scores (CDS) and two Effect Scores (increase and decrease). PoDs were defined as the concentration at which the mean response to a test material exceeded the 95% credible range of control for each timepoint (otherwise the mean response remains within the range of control). PoDs distribution for each timepoint, test material and readout, from which different statistical measures (e.g., the median, 95% credible range etc.) were calculated. The CDS was designed to provide confidence metric in whether an effect in the data was truly concentration dependent.

[6] = test system: EpiAlveolar™ tissues; assay: Histology and immunohistochemistry, EpiAlveolar model, Laboratory 2; settings: Laboratory 2, 12-day period
Procedure: To evaluate the quality of EpiAlveolar™ tissues over the 12-day experimental period, histological and immunohistochemistry assessments for detection of pan-cytokeratin, vimentin, aquaporin 5, pro-surfactant C, CD68, caspase-3, and/or αSMA were performed by Laboratories 1 and 2.
Tissues were kept in 10% phosphate buffered formalin at 4°C for up to 48 h. Samples were then fixed in 70% ethanol and two strips of membrane were trimmed from each sample, processed, and paraffin-embedded to be cut at 5 µm thick sections and mounted to glass slides. The slides were then dewaxed in xylene, hydrated using graded industrial methylated spirit (70-100%) and stained with H&E for light microscope analysis.
For immunohistochemistry analysis, tissue sections-containing microscope slides were obtained and processed using a Discovery Ultra Staining System (Roche), according to manufacturer’s instructions, except for anti-CD68 staining that was manually performed. The slides were incubated at 60°C for 8 min and then deparaffinized at 69°C for 24 min. After that, slides were incubated with inhibitor CM or peroxidase blocking solution (for anti-CD68 staining) for 8 min at room temperature. The slides were then incubated at room temperature with the following primary monoclonal antibodies, following manufacturer’s instructions: anti-α smooth muscle actin (αSMA) at 1:500 (Leica Microsystems Ltd), anti-CD68 at 1:3000 for macrophages (11192-T24, Sino Biological), anti-pro-surfactant C protein at 1:1000 (AB3786, Sigma-Aldrich), anti-caspase-3 at 1:10000 (AB4051, Abcam), anti-aquaporin 5 (31661, Invitrogen), anti-pan-cytokeratin for epithelial cells (760-2595, Roche), and anti-vimentin for mesenchymal cells (790-2917, Roche). […]
A board-certified pathologist evaluated the changes (epithelial thinning, separation/detachment areas, necrosis, collagen, and presence of apoptotic cells, myofibroblasts, and type II pneumocytes) using a semi-quantitative scoring system (Table 2).

[7] = test system: EpiAlveolar™ tissues; assay: High-throughput transcriptomics (RNA-seq, PLIER latent variables), EpiAlveolar model, Laboratory 2; format: cell-based, human; settings: for MinPoD: Transcriptomics
[8] = test system: EpiAlveolar™ tissues; assay: Cytokine and chemokine measurements (Luminex), EpiAlveolar model, Laboratory 1; format: cell-based, human; settings: for Cytokines/chemokines modulated (in words): EpiAlveolar, Laboratory 1; for MinPoD: EpiAlveolar™ model Laboratory-1
Description: (§1) EpiAlveolar™ system was obtained from MatTek Corporation (Ashland, MA, United States, cat. no. ALV-100-FT-MAC, ALV-100-FT-MAC-PE12). According to the supplier, the tissue systems were derived from primary human alveolar epithelial cells and primary pulmonary fibroblasts, both from a same healthy donor, and pulmonary endothelial cells from another healthy donor, and THP-1 cell line derived macrophages. These tissues were differentiated by the manufacturer prior to shipping to the testing facilities. […] TEER was measured and only systems with confirmed quality of the tight junction barrier (>300 Ω.cm^2) and with approved morphological inspection were used in the experiments.
(§2) Vehicle control groups were also tested in parallel. Except for Doxorubicin (which underwent a 6-day chemical exposure + 6-day without exposure), exposures were conducted daily, on 12 consecutive days with different concentrations, through aerosol, apical or basolateral liquid exposure methods (Table 2). […] Each of the insert holders of the instrument base module was filled with Hanks’ Balanced Salt solution (HBSS) or PBS prior to placing the tissue inserts. Then, each test item solution/suspension was placed into the nebulizer reservoir for aerosol material exposure. The nebulizer was activated until the material solution/suspension was consumed and discharged into the main exposure chamber and allowed to fully gravity deposit out of the Cloud 12 (determined using a QCM). After exposure, the tissues were placed back into their multi-well culture plates containing the same medium, a further aliquot of media was added apically (20 µL for Akemi, 75 µL for all others except LPS) and returned to incubator until next exposure. Media used during the 6- or 12-day experimental period was prepared without Supplement X by MatTek. In medium exposure, the apical or basolateral liquid of each tissue was removed and replaced with each test item medium solution/suspension and returned to the incubator until the next exposure. After the beginning of the exposure cycles, tissues were only re-fed with new culture medium every 3-4 days.
In Laboratory 1, basal media samples collected from the tissues were collected and stored at ≤ −60°C until analysis. For cytokine/chemokine measurements, 17-Plex, duplex and single-plex analyte detection panels were run on the samples using Human Luminex™ Multiplex Immunoassay kits (R&D Systems). The analytes quantified were TNF-α, IL-6, MMP-9, MMP-3, MMP-1, MMP-2, CXCL10, CCL2, IFN-γ, IL-1ra, CCL7, IL-1a, CCL26, CXCL9, VCAM-1, ICAM-1, and CXCL11 in a 17-plex assay; whereas IL-8 and Serpin E1 in a duplex assay and TGF-β1 in a single-plex assay.

[9] = test system: EpiAlveolar™ tissues; assay: Cytokine and chemokine measurements (Luminex), EpiAlveolar model, Laboratory 2; format: cell-based, human; settings: for Cytokines/chemokines modulated (in words): EpiAlveolar, Laboratory 2; for MinPoD: EpiAlveolar™ model Laboratory-2
Description: as §1, §2
In Laboratory 2, apical culture media samples of the tissues were collected, stored at −80°C until shipment, in dry ice with temperature monitor control, to Unilever SERS, where the analyses were performed. Upon receipt, samples were again stored in the −80°C until the analysis using Human Luminex® Discovery Assay kits (R&D Systems). The same readouts investigated for MucilAir™-HF tissue samples were quantified in these samples.

[10] = human, therapeutic dose, infusion of 60 mg/m^2 for 40 min; ref Barpe et al. (2010); cited from earlier work
[11] = test system: MucilAir™-HF tissues; assay: TEER analysis of tissue barrier integrity, MucilAir-HF model; settings: Day 4, biomarker TEER
Procedure: as §4
(§6) For toxicity testing performed over a 12-day experimental period, tissues were daily exposed to 3 different concentrations of each test material for 30 min or 6 h (for detailed information on each material see Table 1). […]
(§7) TEER measurements were performed daily after test item exposure to evaluate tissue barrier function. Tissues were washed, 200 µL of buffered saline solution was added to the apical compartment of MucilAir™-HF cultures, and resistance was measured using an EVOMX volt-ohmmeter with chopstick style probes (World Precision Instruments, Stevenage, UK). […]

[12] = test system: MucilAir™-HF tissues; remark: listed apart in the source
Procedure: as §4, §6, §7

[13] = test system: MucilAir™-HF tissues; assay: Mucin-5AC (Muc5AC) immunohistochemistry, goblet cells, MucilAir-HF model; format: cell-based, human; settings: 30 min/day exposure, average ± standard deviation
Procedure: (§3) Tissues were handled as recommended by manufacturer’s instruction.
The presence of goblet cells was assessed through immunohistochemistry analysis for mucin-5AC protein (Muc5AC) detection. IL-13 and cytomix were used as positive controls (see item 2.5.2 for additional details). On last day of experiment (day 12), cultures (n = 3 tissues/group) were rinsed in PBS and fixed by immersion in 4% formaldehyde for 20 min. Fixed tissues were embedded into paraffin, sectioned, and processed for staining on paraffin sections. The immunostaining of the sections was performed with the Benchmark automated platform (Ventana-Roche, Hoffmann-La Roche Ltd, Basel, Switzerland) and the Autostainer Link 48 (Agilent, Santa Clara, CA. United States) with the detection kit Ultraview DAB (DAB chromogeny, Hoffmann-La Roche Ltd). Sections were pre-treated using heat mediated antigen retrieval with sodium citrate buffer, pH 6, for 20 min. The section was then incubated with recombinant anti-mucin 5AC antibody (ab3649, Abcam) for 1 h at room temperature, followed by biotinylated secondary antibody (Dako) and HRP detection (HRP conjugated ABC system, Vector Laboratories), according to manufacturer’s instruction. The section was then counterstained with hematoxylin (Sigma-Aldrich) and mounted with DPX, a synthetic non-aqueous mounting medium for microscopy. Digital images of the slides were then acquired, and quantitative image analysis performed using Image Pro Plus 6.2 (Media Cybernetics) to quantify the goblet cells on a section. The whole images of stained sections were scanned, and an average 15 images/section were analysed. The results are the ratio between the mucin 5AC stained area and the total surface area of the epithelium on the section.

[14] = test system: MucilAir™-HF tissues; assay: Cytokine and chemokine measurements (Luminex), MucilAir-HF model; format: cell-based, human; settings: for Cytokines/chemokines modulated (in words): MucilAir-HF; for MinPoD: MucilAir™-HF model, biomarker IL-1ra
Procedure: as §3
Basolateral medium samples of the tissue cultures were collected and stored at −80°C until analysis. The following cytokines/chemokines were quantified using customized Human Luminex® Discovery Assay kits (R&D Systems): chemokine (C-C motif) ligand (CCL) 2, CCL7, CCL26, C-X-C motif chemokine ligand (CXCL) 10, CXCL11, intercellular adhesion molecule-1 (ICAM-1), IL-1α, IL-6, IL-8, matrix metalloproteinase (MMP)-1, MMP-2, MMP-3, MMP-7, MMP-9, osteopontin, interferon (IFN)-γ, IL-1 receptor antagonist (IL-1Ra), urokinase-type plasminogen activator receptor (uPAR), tumour necrosis factor (TNF)-α, urokinase (uPA), serpin E1, tissue inhibitor of metalloproteinase 1 (TIMP-1), and TGF-β1. Samples were measured in technical triplicates according to the manufacturer’s recommendation using a Luminex Bio-Plex® 200 RUO System ([…]).

[15] = test system: Beas2B, HFL-1 and H292 cells; set-up: method as in Gerloff et al., 2017; settings: 10 ng/mL for 24h; ref Gerloff et al., 2017; cited from earlier work
[16] = test system: human airway smooth muscle cells; set-up: method as in McKay et al., 2000; settings: 1-500 U/mL for 24h; ref McKay et al., 2000; cited from earlier work
[17] = Day 4, EpiAlveolar™ model Laboratory-2
[18] = Day 8, EpiAlveolar™ model Laboratory-1
[19] = Day 8, EpiAlveolar™ model Laboratory-2
[20] = Day 12, EpiAlveolar™ model Laboratory-1
[21] = Day 12, EpiAlveolar™ model Laboratory-2
[22] = day 12, High 1 concentration (third of the tested concentrations)
[23] = day 12, Low concentration (first of the tested concentrations)
[24] = day 12, Medium concentration (second of the tested concentrations)

Molecule | Risk [3] | Risk classification [3] | BER_min [5, 17] | BER_min ([5]; Day 4, Transcriptomics) | BER_min [5, 18] | BER_min [5, 19] | BER_min ([5]; Day 8, Transcriptomics) | BER_min [5, 20] | BER_min [5, 21] | BER_min ([5]; Day 12, Transcriptomics) | Histological changes compared to vehicle and control groups (in words) [6] | Cytokines/chemokines modulated (in words) [8] | Cytokines/chemokines modulated (in words) [9] | % of Muc5AC area [13, 22] [%] | % of Muc5AC area [13, 23] [%] | % of Muc5AC area [13, 24] [%] | Cytokines/chemokines modulated (in words) ([14]; 30 min/day exposure) | other results
Carboxymethylcellulose sodium salt [CMC] |  |  |  |  |  |  |  |  |  |  |  |  |  |  |  |  |  | MCC change (in words) [1]: concentration-dependent reduction in the MCC only on day 1; BER_min [2]: 2.393
CCCCc1oc2ccccc2c1C(=O)c1cc(I)c(OCCN(CC)CC)c(I)c1 [Amiodarone, Amiodarone hydrochloride] | High | High | 3.4764 | 0.004237 | 0.6586 | 2.602 | 0.004247 | 0.4855 | 2.516 | 0.004174 | changes were not observed | upregulated levels of ICAM-1 | upregulated levels of ICAM-1; also recorded: downregulated levels of MMP-1 and MMP-2 |  |  |  |  | Patients developing Amiodarone-induced pulmonary fibrosis following typical Amiodarone pneumonitis [4]: 5%–7%; MinPoD ([7]; Day 4, biomarker 30): 0.008474 μg/cm2; MinPoD ([7]; Day 8, biomarker 30): 0.008494 μg/cm2; MinPoD ([7]; Day 12, biomarker 30): 0.00835 μg/cm2; MinPoD ([8]; Day 8, biomarker ICAM-1): 1.317 μg/cm2; MinPoD ([8]; Day 12, biomarker ICAM-1): 0.971 μg/cm2; MinPoD ([9]; Day 4, biomarker MMP-1): 6.9528 μg/cm2; MinPoD ([9]; Day 8, biomarker ICAM-1): 5.203 μg/cm2; MinPoD ([9]; Day 12, biomarker ICAM-1): 5.033 μg/cm2
COc1cccc2c1C(=O)c1c(O)c3c(c(O)c1C2=O)C[C@@](O)(C(=O)CO)C[C@@H]3O[C@H]1C[C@H](N)[C@H](O)[C@H](C)O1 [Doxorubicin, Doxorubicin hydrochloride] | High | High | 0.08579 | 0.0005847 | 0.1025 | 0.05859 | 0.0006121 | 0.09985 | 0.0528 | 0.0005393 | minor increase in epithelial thinning and a minor increase in the numbers of degenerate cells were observed by day 4 | tendency towards downregulation of the inflammatory and degradation of extracellular matrix/fibrosis responses; also recorded: dual effect with the anti-inflammatory IL-1ra response | tendency towards downregulation of the inflammatory and degradation of extracellular matrix/fibrosis responses |  |  |  |  | BER_min ([5]; Day 1, EpiAlveolar™ model Laboratory-2): 0.2187; BER_min ([5]; Day 1, Transcriptomics): 0.002215; BER_min ([5]; Day 4, EpiAlveolar™ model Laboratory-1): 0.1204; Plasma conc [10]: Plasma conc 1.3 μM; Median change, 171 - INTRAFLAGELLAR_TRANSPORT [7]: 0.04; MinPoD ([7]; Day 1, biomarker 111): 0.002879 μg/cm2; MinPoD ([7]; Day 4, biomarker 111): 0.00076 μg/cm2; MinPoD ([7]; Day 8, biomarker 111): 0.0007958 μg/cm2; MinPoD ([7]; Day 12, biomarker 111): 0.000701 μg/cm2; MinPoD ([8]; Day 4, biomarker MMP-3): 0.1566 μg/cm2; MinPoD ([8]; Day 8, biomarker MMP-3): 0.1333 μg/cm2; MinPoD ([8]; Day 12, biomarker MMP-9): 0.1298 μg/cm2; MinPoD ([9]; Day 1, biomarker CCL2): 0.2843 μg/cm2; MinPoD ([9]; Day 4, biomarker CCL2): 0.1115 μg/cm2; MinPoD ([9]; Day 8, biomarker CCL7): 0.07617 μg/cm2; MinPoD ([9]; Day 12, biomarker CCL7): 0.06864 μg/cm2
Benzalkonium chloride [BAC] |  |  |  |  |  |  |  |  |  |  |  |  |  | 3.98 ± 1.12 | 5.75 ± 0.93 | 5.37 ± 1.06 | increase in CCL7, IL-1α and IL-6; also recorded: downregulation of MMP-7 only | MinPoD [11]: 2.6 μg/cm2; Tissue barrier integrity (TEER) change (in words) [12]: trigger changes in tissue barrier integrity; Cytokines/chemokines modulated (in words) ([14]; exposure time/day not given): IL-1ra showed upregulated levels; MinPoD ([14]; Day 8): 1.822 μg/cm2; MinPoD ([14]; Day 12): 1.409 μg/cm2
Recombinant human TNF-α (carrier-free) |  |  |  |  |  |  |  |  |  |  |  |  |  | 5.21 ± 3.28 | 8.18 ± 1.54 | 9.15 ± 6.07 | upregulation of CCL2 and osteopontin | IL-8 protein levels [15]: increased IL-8 protein levels; IL-6 production protein and mRNA transcript levels [16]: significant increase of IL-6 production protein and mRNA transcript levels
